Tested on: MRSA ATCC 43300
Assay: Neutropenic murine thigh infection model
Type: in vivo
Conditions: neutropenic mice, 20 mg/kg, 24 h after dosing, n = 6/group
Description: Therefore, the in vivo efficacy of compounds 12c and 22c were assessed using the murine neutropenic thigh infection model. Mice groups treated with saline and tiamulin were chosen as the negative and positive controls.
Model experiments of neutropenic mouse thigh infection were manipulated as described in the literature. Female, six-week-old, specific-pathogen-free mice weighing approximately 23~26 g were used throughout the study. Mice were rendered neutropenic by injection of cyclophosphamide (Mead Johnson Pharmaceuticals, Evansville, IN) on day 4 (150 mg/kg) and day 1 (100 mg/kg) before the experiment. The neutrophil numbers in mice blood should be <0.1 × 10^9/L [34]. In total, 0.1 mL of MH broth of MRSA (10^7 CFU/mL) was inoculated into each thigh of the neutropenic mice. Mice were divided into 4 groups (6 mice per group), including control (sterile saline), compounds 12c, 22c and tiamulin groups. After 3 h post-infection, the corresponding drugs were injected into each mouse’s thigh. Mice were euthanized following intravenous injection for 24 h. Thigh tissue of each mouse was removed, collected, weighed and homogenized in 3 mL of ice sterile saline. Six ten-fold serial dilutions were performed and 25 μL of the bacterial solution from each tube was plated on MH agar plates. The resulting colonies were counted after 24 h incubation at 37 °C. The protocol for this study was reviewed and approved by the Institutional Animal Care and Use Committee of the South China Agricultural University.

In the case of `C=C[C@]1(C)C[C@@H](OC(=O)CSc2ccc(Nc3nc(Cl)nc4c3cnn4-c3ccc(F)c(F)c3)cc2)[C@]2(C)[C@H](C)CC[C@]3(CCC(=O)[C@H]32)[C@@H](C)[C@@H]1O` [Compound 22c, 22-[4-(6-Chloro-1-(3,4-difluorophenyl)-1H-pyrazolo[3,4-d]pyrimidine-4-yl)amino-Phenylsulfanyl]-22-deoxypleuromutilin], the “reduction of MRSA load in thigh vs growth control” value is reported as −0.93 log10 CFU/mL.
